Laboratory results published in patent US20220281848A1, “PYRAZOLE-SUBSTITUTED PYRROLIDINONES AS HERBICIDES” (FMC Corporation, priority 2019, published 2022).

Tested on: plants
Assay: Test D pre-emergence, other plants of Tables D1 and D3
Type: in vivo
Settings: for damage to plant (100=total damage to plant; 0=no damage to plant), SORVU: preemergent, 20 DAA; for damage to plant, ALOMY / damage to plant, AVEFA / damage to plant, BEAVA / damage to plant, BROTE / damage to plant, BRSNN / damage to plant, CHEAL / damage to plant, GALAP / damage to plant, HORVW / damage to plant, KCHSC / damage to plant, LOLPE / damage to plant, POAAN / damage to plant, POLCO / damage to plant, SINAR / damage to plant, STEME / damage to plant, VERPE: pre-emergence, 100=total damage, 0=no damage
Outline: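 Seeds treated with herbicide safener; sown in soil; glasshouse, 16 h light, 65% humidity. Sprayed day 1 (pre) or ~day 12 (post). Spray in 0.2% v/v adjuvant. Scored 0–100 damage: 20 DAA pre, 15 d post.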

For CCn1nc([C@@H]2CN(C)C(=O)[C@H]2C(=O)Nc2cccc(F)c2F)c2cccc(F)c21 [Compound 14], the “damage to plant (100=total damage to plant; 0=no damage to plant), SORVU” value (rate 130) was 0, the “damage to plant (100=total damage to plant; 0=no damage to plant), SORVU” value (rate 250) was 0 and the “damage to plant (100=total damage to plant; 0=no damage to plant), SORVU” value (rate 500) was 30. The “damage to plant, ALOMY” value (rate 15, 20 DAA) was 0, the “damage to plant, AVEFA” value (rate 15, 20 DAA) was 0 and the “damage to plant, BEAVA” value (rate 15, 20 DAA) was 0. For the same compound, the “damage to plant, BROTE” value (rate 15, 20 DAA) was 0, the “damage to plant, BRSNN” value (rate 15, 20 DAA) was 0 and the “damage to plant, CHEAL” value (rate 15, 20 DAA) was 0. The “damage to plant, GALAP” value (rate 15, 20 DAA) was 0, the “damage to plant, HORVW” value (rate 15, 20 DAA) was 0 and the “damage to plant, KCHSC” value (rate 15, 20 DAA) was 0. For the same compound, the “damage to plant, LOLPE” value (rate 15, 20 DAA) was 0, the “damage to plant, POAAN” value (rate 15, 20 DAA) was 0 and the “damage to plant, POLCO” value (rate 15, 20 DAA) was 0. The “damage to plant, SINAR” value (rate 15, 20 DAA) was 0, the “damage to plant, STEME” value (rate 15, 20 DAA) was 0 and the “damage to plant, VERPE” value (rate 15, 20 DAA) was 0. For the same compound, the “damage to plant, ALOMY” value (rate 30, 20 DAA) was 0, the “damage to plant, AVEFA” value (rate 30, 20 DAA) was 0 and the “damage to plant, BEAVA” value (rate 30, 20 DAA) was 0. The “damage to plant, BROTE” value (rate 30, 20 DAA) was 0, the “damage to plant, BRSNN” value (rate 30, 20 DAA) was 0 and the “damage to plant, CHEAL” value (rate 30, 20 DAA) was 0. The “damage to plant, GALAP” value (rate 30, 20 DAA) was 0, the “damage to plant, HORVW” value (rate 30, 20 DAA) was 0 and the “damage to plant, KCHSC” value (rate 30, 20 DAA) was 0. The “damage to plant, LOLPE” value (rate 30, 20 DAA) was 0, the “damage to plant, POAAN” value (rate 30, 20 DAA) was 0 and the “damage to plant, POLCO” value (rate 30, 20 DAA) was 0. The “damage to plant, SINAR” value (rate 30, 20 DAA) was 0, the “damage to plant, STEME” value (rate 30, 20 DAA) was 0 and the “damage to plant, VERPE” value (rate 30, 20 DAA) was 0. For the same compound, the “damage to plant, ALOMY” value (rate 60, 20 DAA) was 0, the “damage to plant, AVEFA” value (rate 60, 20 DAA) was 0 and the “damage to plant, BEAVA” value (rate 60, 20 DAA) was 0. For the same compound, the “damage to plant, BROTE” value (rate 60, 20 DAA) was 0, the “damage to plant, BRSNN” value (rate 60, 20 DAA) was 0 and the “damage to plant, CHEAL” value (rate 60, 20 DAA) was 0. The “damage to plant, GALAP” value (rate 60, 20 DAA) was 0, the “damage to plant, HORVW” value (rate 60, 20 DAA) was 0 and the “damage to plant, KCHSC” value (rate 60, 20 DAA) was 0. The “damage to plant, LOLPE” value (rate 60, 20 DAA) was 30, the “damage to plant, POAAN” value (rate 60, 20 DAA) was 0 and the “damage to plant, POLCO” value (rate 60, 20 DAA) was 10. For the same compound, the “damage to plant, SINAR” value (rate 60, 20 DAA) was 0, the “damage to plant, STEME” value (rate 60, 20 DAA) was 0 and the “damage to plant, VERPE” value (rate 60, 20 DAA) was 0. The “damage to plant, ALOMY” value (rate 130, 20 DAA) was 0, the “damage to plant, AVEFA” value (rate 130, 20 DAA) was 10 and the “damage to plant, BEAVA” value (rate 130, 20 DAA) was 0. The “damage to plant, BROTE” value (rate 130, 20 DAA) was 0, the “damage to plant, BRSNN” value (rate 130, 20 DAA) was 0 and the “damage to plant, CHEAL” value (rate 130, 20 DAA) was 0. The “damage to plant, GALAP” value (rate 130, 20 DAA) was 0, the “damage to plant, HORVW” value (rate 130, 20 DAA) was 10 and the “damage to plant, KCHSC” value (rate 130, 20 DAA) was 0. For the same compound, the “damage to plant, LOLPE” value (rate 130, 20 DAA) was 40, the “damage to plant, POAAN” value (rate 130, 20 DAA) was 20 and the “damage to plant, POLCO” value (rate 130, 20 DAA) was 20. The “damage to plant, SINAR” value (rate 130, 20 DAA) was 0, the “damage to plant, STEME” value (rate 130, 20 DAA) was 0 and the “damage to plant, VERPE” value (rate 130, 20 DAA) was 0. For the same compound, the “damage to plant, ALOMY” value (rate 250, 20 DAA) was 10, the “damage to plant, AVEFA” value (rate 250, 20 DAA) was 30 and the “damage to plant, BEAVA” value (rate 250, 20 DAA) was 0. For the same compound, the “damage to plant, BROTE” value (rate 250, 20 DAA) was 10, the “damage to plant, BRSNN” value (rate 250, 20 DAA) was 0 and the “damage to plant, CHEAL” value (rate 250, 20 DAA) was 0. The “damage to plant, GALAP” value (rate 250, 20 DAA) was 0, the “damage to plant, HORVW” value (rate 250, 20 DAA) was 60 and the “damage to plant, KCHSC” value (rate 250, 20 DAA) was 0. The “damage to plant, LOLPE” value (rate 250, 20 DAA) was 50, the “damage to plant, POAAN” value (rate 250, 20 DAA) was 80 and the “damage to plant, POLCO” value (rate 250, 20 DAA) was 50. The “damage to plant, SINAR” value (rate 250, 20 DAA) was 0, the “damage to plant, STEME” value (rate 250, 20 DAA) was 10 and the “damage to plant, VERPE” value (rate 250, 20 DAA) was 0. For the same compound, the “damage to plant, ALOMY” value (rate 500, 20 DAA) was 70, the “damage to plant, AVEFA” value (rate 500, 20 DAA) was 60 and the “damage to plant, BEAVA” value (rate 500, 20 DAA) was 10. The “damage to plant, BROTE” value (rate 500, 20 DAA) was 50, the “damage to plant, BRSNN” value (rate 500, 20 DAA) was 10 and the “damage to plant, CHEAL” value (rate 500, 20 DAA) was 50. The “damage to plant, GALAP” value (rate 500, 20 DAA) was 0, the “damage to plant, HORVW” value (rate 500, 20 DAA) was 90 and the “damage to plant, KCHSC” value (rate 500, 20 DAA) was 0. The “damage to plant, LOLPE” value (rate 500, 20 DAA) was 80, the “damage to plant, POAAN” value (rate 500, 20 DAA) was 80 and the “damage to plant, POLCO” value (rate 500, 20 DAA) was 80. For the same compound, the “damage to plant, SINAR” value (rate 500, 20 DAA) was 0, the “damage to plant, STEME” value (rate 500, 20 DAA) was 60 and the “damage to plant, VERPE” value (rate 500, 20 DAA) was 20.
